Literature values as cited in patent US20080317753A1, “SELECTING PATIENTS FOR THERAPY WITH A HER INHIBITOR” (GENENTECH, INC., priority 2004, published 2008).
Counter-ions that a name gives are not always drawn.

Assays:
[1] = single agent
[2] = test system: HER2-overexpressing metastatic breast cancers; details: patients with HER2-overexpressing metastatic breast cancers with extensive prior anti-cancer therapy
[3] = combined with gemcitabine in several combinations of different chemotherapies, phase II trials

Row | Compound | nausea and vomiting, combined incidence [1] | clinical activity [2] | tolerability [3]
1 | Nc1ccn([C@@H]2O[C@H](CO)[C@@H](O)C2(F)F)c(=O)n1 [gemcitabine, 2′-deoxy-2′,2′-difluorocytidine monohydrochloride (b-isomer)] | 69% |  | 
2 | trastuzumab: recombinant humanized version of murine HER2 antibody 4D5; light and heavy chain sequences SEQ ID NOS. 15 and 16 |  | clinically active | well tolerated with no observed cardiac or unexpected toxicities
